Where a name gives a salt, the structure may show the parent alone.
Columns and labels:
NIH 3T3 cells = conditions: ref [9]; cited from earlier work
[1] = tested on: LNCaP cells expressing Abi1 Y213F; experiment: flow cytometric uptake of Alexa Fluor 647; format: cell-based; conditions: 25 μM Alexa Fluor 647 hydrazide, 2 hours
[2] = tested on: macropinocytic uptake of pathogenic bacteria; conditions: ref [10],[11]; cited from earlier work
[3] = tested on: macropinocytic uptake and membrane ruffles; conditions: ref [21]; cited from earlier work
Rac1 activation = conditions: ref [25]; cited from earlier work

Molecule: O=c1cc(N2CCOCC2)oc2c(-c3ccccc3)cccc12 [LY294002]
- macropinocytic uptake of Alexa Fluor 594 (NIH 3T3 cells): inhibit macropinocytic uptake

Molecule: C/C1=C/C(=O)O[C@@H]2C[C@@H](CC[C@H](C)/C=C\C=C\CC1)O[C@@](O)([C@@H]1CSC(=O)N1)C2 [Latrunculin A, latrunculin A]
- macropinocytic uptake of Alexa Fluor 647 with latrunculin A, Abi1 Y213F cells ([1]; 0.2 μM latrunculin A, PDGF not added): significant decrease

Molecule: Cc1ccc(NC(=O)c2ccc(CN3CCN(C)CC3)cc2)cc1Nc1nccc(-c2cccnc2)n1 [STI-571, Imatinib mesylate]
- macropinocytic uptake of pathogenic bacteria [2]: inhibits macropinocytic uptake of pathogenic bacteria

Molecule: COC[C@H]1OC(=O)c2coc3c2[C@@]1(C)C1=C(C3=O)[C@@H]2CCC(=O)[C@@]2(C)C[C@H]1OC(C)=O [wortmannin]
- macropinocytic uptake of Alexa Fluor 594 (NIH 3T3 cells): inhibit macropinocytic uptake
- macropinocytic uptake and formation of membrane ruffles [3]: inhibits macropinocytic uptake and the formation of membrane ruffles but not in all cells

B1: PDGF: PDGF BB (cat # 3201), Sigma-Aldrich (protein, UniProt P01127 82-190, looked up)
Platelet-derived growth …: SLGSLTIAEPAMIAECKTRTEVFEISRRLIDRTNANFLVWPPCVEVQRCSGCCNNRNVQCRPTQVQLRPVQVRKIEIVRKKPIFKKATVTLEDHLACKCETVAAARPVT
modifications: Platelet-derived growth factor subunit B homodimer
- PDGF response of Alexa Fluor 647 uptake, Abi1 Y213F cells ([1]; 10 ng/ml PDGF): demonstrated PDGF response
- Rac1 activation following PDGF stimulation (Rac1 activation): enhanced Rac1 activation

— article PMC2917628 (FEBS letters, 2010)
